From article PMC10928712, “High Target Homology Does Not Guarantee Inhibition: Aminothiazoles Emerge as Inhibitors of Plasmodium falciparum” (ACS Infectious Diseases, 2024)

Assays:
P. falciparum Dd2 = test: Method III growth inhibition assay (HRP2-ELISA, 3 days), Dd2; format: cell-based, Plasmodium falciparum; conditions: Plasmodium falciparum, DD2, chloroquine-resistant Dd2, method III
[1] = system: MEP pathway metabolites in E. coli ΔTolC; test: LC-MS/MS profiling of MEP pathway metabolites in E. coli; conditions: 48 μM (10× the IC50), 2 h, pyruvate concentration drops
Experimental: Overnight cultures of E. coli ΔTolC were diluted 1:1000 in LB media and grown at 37 °C until reaching the mid logarithmic phase (OD600 = 0.67–7.2). […] For normalization, the OD600 was determined after 2 h of treatment with the inhibitor. Cells were pelleted by centrifugation for 5 min at 3000g at 4 °C. The supernatants were removed, and cells were washed twice with 1× PBS. The supernatants were removed, and the pellets were stored at −80 °C until analysis. […]
For pyruvate analysis from the E. coli samples, the LC separation was done on the Shimadzu Nexera II using the Poroshell 120 (Agilent, 2.7 μm, 150 × 2.1 mm) flowing at 0.5 mL/min. […] Metabolites were detected using MRM transitions that were previously optimized using standards. […] For quantification, an external standard curve was prepared using a series of standard samples containing different concentrations of metabolites and fixed concentration of the internal standard. […]

[2] = system: Mycobacterium tuberculosis H37Rv strain; set-up: method as in PMID 36320685; conditions: cited from earlier work
Hep G2 cells = test: Hep G2 viability assay (counter screen); format: cell-based, human; conditions: cytotoxicity, 48 h
Experimental: HepG2 cells (2 × 10^5 cells per well) were seeded in 24-well, flat-bottomed plates. Culturing of cells, incubations, and OD measurements were performed as described previously with small modifications.[58] 24 h after seeding the cells, the incubation was started by the addition of compounds in a final DMSO concentration of 1%. The metabolic activity of the living cell mass was determined after 48 h. At least three independent measurements were performed for each compound. The IC50 values were determined during logarithmic growth using GraphPad Prism software. All experiments were performed at least in triplicate, and data reported represent the mean ± SD.

P. falciparum NF54 [3] = test: Method II growth-inhibition assay (PicoGreen, 3 days), NF54; format: cell-based; conditions: Plasmodium falciparum; chloroquine-sensitive NF54, method II
Excerpt: (§1) Fidock (Columbia University).

M. tuberculosis DXPS = target: M. tuberculosis DXPS; set-up: method as in PMID 36320685; conditions: Morrison inhibition constant, slow-, tight-binding; read-out: Ki* MtDXPS; cited from earlier work
P. falciparum 3D7 [4] = test: Method II growth-inhibition assay (PicoGreen, 3 days), 3D7; format: cell-based; conditions: Plasmodium falciparum, 3D7, method II
Excerpt: as §1

[5] = system: P. falciparum 3D7 MOCK cell line; test: Growth inhibition of MOCK cell line (vector backbone only); format: cell-based; conditions: Plasmodium falciparum, 3D7, read-out: MOCK IC50, MOCK compared with 3D7-TPK+; single measurement; 95% CI in brackets
Excerpt: (§2) The open reading frame (ORF) encoding 1-deoxy-D-xylulose-5-phosphate synthase (PfDXPS; PF3D7_1337200) was amplified from genomic DNA isolated from unsynchronized P. falciparum 3D7 cultures using the Platinum PCR SuperMix High Fidelity (Invitrogen). Forward and reverse primers contained restriction sites for KpnI and AvrII in sense and antisense orientation, respectively (oligonucleotides pfDXPS-Kpn1-S: […]; pfDXPSmyc-Avr2-AS: […] ). PCR products and the transfection vector pARL1a-hDHFR PfARG-GFP were digested with KpnI and AvrII, purified (Gel extraction Kit and PCR purification kit; Qiagen), and cloned into the transfection vector yielding the construct for overexpression pARL-DXS-strep. XL 10-Gold E. coli ultracompetent cells (Agilent Technologies) were transformed with the generated construct to amplify the plasmid and colonies checked using restriction analysis and sequencing of the plasmid. Bacterial clones carrying the overexpression construct and the empty pARL1a vector (MOCK plasmid) were amplified in overnight cultures, isolated (Plasmid Maxi Kit; QIAGEN), and subsequently used to transfect P. falciparum 3D7 ring-stage parasites, as already described.[59] Briefly, 120 μg of plasmid DNA was centrifuged and air-dried, and the pellet was resuspended in TE buffer and cytomix reagent and mixed with the P. falciparum culture. Parasites were transfected using electroporation and selected with WR 99210. The generation and characterization of the PfTPK overexpression cell line has been reported before.[60]
(§3) P. falciparum cultures were treated as described in method I. For target specification toward PfTPK and PfDXPS, compounds were tested in comparison against overexpressing cell lines and the respective MOCK line containing only the transfected vector backbone. Parasite viability/proliferation was determined.

P. falciparum 3D7-DXPS+ = test: Growth inhibition of PfDXPS overexpressing parasites (3D7-DXPS+); format: cell-based; conditions: Plasmodium falciparum, 3D7, read-out: PfDXPS IC50
Excerpt: as §2, §3

[6] = system: MEP pathway and TCA cycle metabolites in P. falciparum 3D7; test: LC-MS/MS profiling of MEP pathway, TCA cycle, glycolytic and pentose phosphate metabolites in P. falciparum; format: cell-based, Plasmodium falciparum; conditions: 12 h
P. falciparum 3D7 [7] = test: Method III growth inhibition assay (HRP2-ELISA, 3 days), 3D7; format: cell-based, Plasmodium falciparum; conditions: Plasmodium falciparum, 3D7, 3D7, method III (HRP2 assay), drc package of R; read-out: IC50 P. falciparum 3D7 (method III)
P. falciparum 3D7 [8] = test: IDP rescue assay, P. falciparum 3D7; format: cell-based; conditions: Plasmodium falciparum
Experimental: (§4) Fidock (Columbia University). […] P. falciparum cultures were treated as described in method II. For IDP (Isoprenoids.com) rescue experiments, 125 μM IDP was added to the appropriate wells for the duration of the experiment. The well-described DXR inhibitor FSM was used as a positive control. IC50 values were calculated by nonlinear regression analysis using GraphPad Prism software. All experiments were performed at least in triplicate, and data reported represent the mean ± SD.

[9] = system: blood-stage P. falciparum 3D7; conditions: Plasmodium falciparum
P. falciparum NF54 [10] = test: IDP rescue assay, P. falciparum NF54; format: cell-based; conditions: Plasmodium falciparum
Experimental: as §4

SMILES: Cc1nc(N)sc1-c1csc(Nc2ccc(C(F)(F)F)cc2)n1 [compound 1]
- IC50 (P. falciparum Dd2): 800 ± 400 nM
- MEP pathway metabolite concentrations upon inhibitor treatment [1]: all downstream metabolites of DXPS are increased
- MIC [2]: 5 to 10 µM
- IC50 (Hep G2 cells; Homo sapiens, HepG2, 48 h): 54000 ± 2400 nM
- IC50 (Hep G2 cells): > 50000 nM
- IC50 (P. falciparum NF54 [3]): 800 ± 100 nM
- Ki (M. tuberculosis DXPS): 210 ± 30 nM
- IC50 (P. falciparum 3D7 [4]; 95% CI in brackets, read-out: IC50 B): 1600 nM
- IC50 (P. falciparum 3D7 [4]; read-out: IC50 3D7-II): 1700 ± 600 nM
- IC50 [5]: 1180 nM
- IC50 (P. falciparum 3D7-DXPS+): 2080 nM
- DOXP, Mean of + 1 ([6]; 1 at 7.65 μM (5× IC50), UNT 1,163, P >0,99999): 1,163
- MEcDP, Mean of + 1 ([6]; 1 at 7.65 μM, UNT 11,24, P 0,720090): 10,20
- PEP, Mean of + 1 ([6]; 1 at 7.65 μM, UNT 11,98, P 0,005029): 5,297
- GC3P, Mean of + 1 ([6]; 1 at 7.65 μM, UNT 13,48, P 0,003896): 6,757
- 3PGA, Mean of + 1 ([6]; 1 at 7.65 μM, UNT 14,78, P 0,037010): 8,127
- G6P, Mean of + 1 ([6]; 1 at 7.65 μM, UNT 17,23, P 0,044056): 6,793
- MAL, Mean of + 1 ([6]; 1 at 7.65 μM, UNT 53,67, P 0,001940): 23,30
- 2PGA, Mean of + 1 ([6]; 1 at 7.65 μM, UNT 61,07, P 0,050194): 31,49
- CIT, Mean of + 1 ([6]; 1 at 7.65 μM, UNT 64,80, P 0,008553): 25,15
- CDP-ME, Mean of + 1 ([6]; 1 at 7.65 μM, UNT 0,06667, P 0,587914): 0,07667
- S7P, Mean of + 1 ([6]; 1 at 7.65 μM, UNT 90,64, P 0,340281): 54,93
- PYR, Mean of + 1 ([6]; 1 at 7.65 μM, UNT 102,5, P 0,030535): 28,19
- G1P/F6P, Mean of + 1 ([6]; 1 at 7.65 μM, UNT 103,0, P 0,112890): 57,13
- LAC, Mean of + 1 ([6]; 1 at 7.65 μM, UNT 104,2, P 0,388380): 80,23
- SUC, Mean of + 1 ([6]; 1 at 7.65 μM, UNT 118,0, P 0,002161): 60,23
- DMADP, Mean of + 1 ([6]; 1 at 7.65 μM, UNT 0,1667, P 0,032540): 0,1033
- HDMADP, Mean of + 1 ([6]; 1 at 7.65 μM, UNT 0,2200, P 0,306022): 0,1833
- MEP, Mean of + 1 ([6]; 1 at 7.65 μM, UNT 0,4233, P 0,070645): 0,3100
- FUM, Mean of + 1 ([6]; 1 at 7.65 μM, UNT 1668, P 0,003295): 727,7
- ACO, Mean of + 1 ([6]; 1 at 7.65 μM, UNT 1,877, P 0,144422): 1,140
- RU5P/RUP, Mean of + 1 ([6]; 1 at 7.65 μM, UNT 5,757, P 0,038874): 2,520
- IC50 (P. falciparum 3D7 [7]): 600 ± 200 nM
- IC50 (P. falciparum 3D7 [8]; 3D7, 72 h, + IDP (125 μM)): 2400 ± 200 nM
- IC50 (P. falciparum 3D7 [8]; 3D7, without IDP): 1900 ± 200 nM
- IC50 [9]: 600 to 1700 nM
- IC50 (P. falciparum NF54 [10]; NF54, 72 h, + IDP (125 μM)): 500 nM
- IC50 (P. falciparum NF54 [10]; NF54, without IDP): 800 ± 100 nM
